Results reported in patent US9415047B2, “Use of benzo five-membered nitrogen heterocyclic piperazine or piperidine derivatives” (Liaoning Emmy Biological Pharmaceutical Co., Ltd., priority 2012, dated 2016).

Columns and labels:
[1] = system: AD constricted rabbit aorta; assay: Relaxing effects on vascular smooth muscle constricted by adrenaline hydrochloride (AD) in vitro; conditions: Oryctolagus cuniculus; relaxation of rabbit aorta constricted by adrenaline (10^−5 mol/L); mean±SEM, n=5
Protocol: Adrenaline hydrochloride (AD) (10^−5 mol/L) was added into a bath tube to induce constriction, when maximal constriction was achieved, the sample was completely flushed, K-H solution was changed for every 20 min. Contents in the tube was balanced for 60 min, when baseline recovered to be stable, the […] was added at the same concentration to induce constriction. When the later maximal constriction response was basically consistent with the former one, the prepared compound solutions were subsequently added, including compound II-1 to II-60 solutions (1×10^−8-1×10^−3 mol/L), compound II-84 to II-123 solutions (1×10^−10-1×10^−2 mol/L) and compound II-124 to II-157 solutions (1×10^−10˜1×10^−3 mol/L), to record the waveforms. Relaxing percentage of the compound was used as Y axis, maximal relaxation response was 100%, negative logarithm of different concentration was used as X axis, to draw dose effect curve (expressed in mean±SEM ( ? ), n=5). Compounds II-2 and II-3 had the most obvious relaxing effects (FIG. 1 and FIG. 8).

[2] = system: high kalium concentration constricted rabbit aorta; assay: Relaxing effects on vascular smooth muscle constricted by high kalium concentration in vitro; conditions: Oryctolagus cuniculus, relaxation of rabbit aorta constricted by high kalium solution (K+ 60 mmol/L); mean±SEM, n=5
Protocol: Adrenaline hydrochloride (AD) (10^−5 mol/L) was added into a bath tube to induce constriction, when maximal constriction was achieved, the sample was completely flushed, K-H solution was changed for every 20 min. Contents in the tube was balanced for 60 min, when baseline recovered to be stable, K-H solution in the bath tube was replaced with high kalium concentration solution to induce constriction. When the later maximal constriction response was basically consistent with the former one, the prepared compound solutions were subsequently added, including compound II-1 to II-60 solutions (1×10^−8-1×10^−3 mol/L), compound II-84 to II-123 solutions (1×10^−10-1×10^−2 mol/L) and compound II-124 to II-157 solutions (1×10^−10-1×10^−3 mol/L), to record the waveforms. Relaxing percentage of the compound was used as Y axis, maximal relaxation response was 100%, negative logarithm of different concentration was used as X axis, to draw dose effect curve (expressed in mean±SEM ( ? ), n=5). Compounds II-2 and II-3 had the most obvious relaxing effects (FIG. 2 and FIG. 9).

SMILES | EC50 [1] [µM] | EC50 [2] [µM]
Clc1cccc(N2CCN(CCCCn3cnc4ccccc43)CC2)c1 [II-1, 1-(4-(4-(3-chlorophenyl)piperazine-1-yl)butyl)-1H-benzimidazole] | 9.33 | 8.91
Clc1cccc(N2CCN(CCCCn3cnc4ccccc43)CC2)c1Cl [II-3, 1-(4-(4-(2,3-dichlorophenyl)piperazine-1-yl)butyl)-1H-benzimidazole] | 0.977 | 3.24
COc1ccccc1N1CCN(CCCCn2cnc3ccccc32)CC1 [II-4, 1-(4-(4-(2-methoxyphenyl)piperazine-1-yl)butyl)-1H-benzimidazole] | 11 | 16.2
Cc1nc2ccccc2n1CCCCN1CCN(c2cccc(C(F)(F)F)c2)CC1 [II-5, 2-methyl-1-(4-(4-(3-trifluoromethylphenyl)piperazine-1-yl)butyl)-1H-benzimidazole] | 16.6 | 29.5
Fc1ccc2ncn(CCCCN3CCN(c4cccc(C(F)(F)F)c4)CC3)c2c1 [II-6, 6-fluoro-1-(4-(4-(3-trifluoromethylphenyl)piperazine-1-yl)butyl)-1H-benzimidazole] | 23.4 | 38.9
c1ccc(N2CCN(CCCn3cnc4ccccc43)CC2)cc1 [II-7, 1-(3-(4-phenylpiperazine-1-yl)propyl)-1H-benzimidazole] | 51.3 | 162
Fc1cccc(N2CCN(CCCn3cnc4ccccc43)CC2)c1 [II-8, 1-(3-(4-(3-fluorophenyl)piperazine-1-yl)propyl)-1H-benzimidazole] | 19.5 | 38.9
Cc1nc2ccccc2n1CCCN1CCN(c2cccc(F)c2)CC1 [II-9, 2-methyl-1-(3-(4-(3-fluorophenyl)piperazine-1-yl)propyl)-1H-benzimidazole] | 42.7 | 52.5
N#Cc1cccc(N2CCN(CCCCn3cnc4ccccc43)CC2)c1 [II-10, 1-(4-(4-(3-cyanophenyl)piperazine-1-yl)butyl)-1H-benzimidazole] | 55 | 110
Cc1ccc(N2CCN(CCCCn3cnc4ccccc43)CC2)cc1 [II-11, 1-(4-(4-(4-methylphenyl)piperazine-1-yl)butyl)-1H-benzimidazole] | 89.1 | 141
c1coc(N2CCN(CCCCn3cnc4ccccc43)CC2)c1 [II-12, 1-(4-(4-(2-furyl)piperazine-1-yl)butyl)-1H-benzimidazole] | 44.7 | 70.8
c1ccc2c(c1)ncn2CCCCN1CCN(c2ccncc2)CC1 [II-13, 1-(4-(4-(4-pyridyl)piperazine-1-yl)butyl)-1H-benzimidazole] | 38.9 | 30.2
c1cnc(N2CCN(CCCCn3cnc4ccccc43)CC2)nc1 [II-14, 1-(4-(4-(2-pyrimidinyl)piperazine-1-yl)butyl)-1H-benzimidazole] | 60.3 | 89.1
c1ccc2c(c1)ncn2CCCCN1CCN(C2CCCCC2)CC1 [II-15, 1-(4-(4-(1-cyclohexyl)piperazine-1-yl)butyl)-1H-benzimidazole] | 33.9 | 30.2
c1ccc2c(N3CCN(CCCCn4cnc5ccccc54)CC3)cccc2c1 [II-16, 1-(4-(4-(1-naphthyl)piperazine-1-yl)butyl)-1H-benzimidazole] | 51.3 | 64.6
c1ccc2nc(N3CCN(CCCCn4cnc5ccccc54)CC3)cnc2c1 [II-17, 1-(4-(4-(2-quinoxalinyl)piperazine-1-yl)butyl)-1H-benzimidazole] | 29.5 | 49
Fc1ccc2c(N3CCN(CCCCn4cnc5ccccc54)CC3)noc2c1 [II-18, 1-(4-(4-(3-(6-fluorobenzisoxazolyl))piperazine-1-yl)butyl)-1H-benzimidazole] | 13.8 | 18.2
Fc1ccc2c(N3CCN(CCCCn4cnc5ccccc54)CC3)nsc2c1 [II-19, 1-(4-(4-(3-(6-fluorobenzisothiazolyl))piperazine-1-yl)butyl)-1H-benzimidazole] | 66.1 | 87.1
